The test system of assay [1] is A/New York/18/2009 (H1N1). Description: microbe, parasite or virus in culture. It counts as cell-based. The following applies: Influenza A virus, H1N1, MDCK; read-out: Cell Protection Assay EC50 ± SD.
Assay [2] relates to A/Cambodia/0371/2007 (H1N1). Kind of assay: microbe, parasite or virus in culture. In kind it is cell-based. As to conditions: Influenza A virus, MDCK, read-out: Cell Protection Assay EC50 ± SD.

Consider `O=C(O)[C@H]1C2CCC(CC2)C1Nc1nc(-c2c[nH]c3ncc(F)cc23)ncc1F` (some centres unmarked) [Compound (1)], for which the concentration for a half-maximal effect (EC50) amounted to 0.59 nM in assay [1] and 0.61 ± 0.33 nM in assay [2].

Usually EC50 stands for the concentration giving half of the maximal effect.

(Values after US20160250213A1, “FORMULATIONS OF AZAINDOLE COMPOUNDS” (priority 2013, published 2016).)
